Measured values published in PubChem BioAssay (NCI).
Several values for one entry are separate records, joined by “and”; a condition that tells them apart may be missing. Identical values can stand only once.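 All cell lines were grown in 96-well plates and treated with compound for 48 hours. GI50: concentration for 50% inhibition of growth. TGI marks complete inhibition of growth.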

System: MDA-MB-468 breast
Test: NCI anticancer screen, dose series, 48 h

Compound	GI50	TGI
CCCC[C@@H]1NC(=O)[C@H](CCCCN)NC(=O)[C@H](CCCNC(=N)N)NC(=O)[C@H](CC(C)C)NC(=O)[C@@H](NC(=O)[C@H](Cc2cccc(Cl)c2)NC(=O)[C@@H]2CCCN2C(=O)[C@@H](NC(C)=O)C(C)C)CCSSC[C@@H](C(=O)N[C@@H](CCCCN)C(=O)N2CCC[C@H]2C(=O)N2CCC[C@H]2C(=O)N[C@@H](CCC(=O)O)C(N)=O)NC(=O)[C@H](Cc2ccccc2)NC(=O)[C@H](CO)NC(=O)[C@H](C)NC(=O)[C@@H]2CCCN2C1=O	> 50 µM	> 50 µM
COc1ccc(-c2nc(-c3nc4ccc(F)cc4[nH]3)cc3c2[nH]c2ccccc23)cc1	2.08 µM	> 100 µM
O=C(NNc1nc2cc(F)ccc2n2c(CN3CCOCC3)ccc12)c1ccccc1	0.193 µM	0.894 µM
Cc1ccc(S(=O)(=O)N(C)C)cc1[N+](=O)[O-]	> 100 µM	> 100 µM
c1ccc2c(c1)O[As](O[As]1Oc3ccccc3O1)O2	1.25 µM	4.04 µM
O=S(=O)(Nc1ccc(-c2nc(-c3cccc(OCCN4CCOCC4)c3)c(-c3ccnc(Br)c3)[nH]2)cc1)c1ccccc1	1.85 µM	5.24 µM
COC1=CC(c2ccc[nH]2)=N/C1=C\c1[nH]c(C)c(C(=O)CCC(=O)Oc2ccc3c(c2)CCC2C3CC[C@]3(C)C(=O)CC[C@@H]23)c1C (some centres undefined)	16.9 µM	> 100 µM
CCOc1ccc(NC(=O)Nc2cc(C(C)C)ccc2C)cc1	5.67 µM	51.8 µM
CCCOC(=O)N[C@H]1CCc2c(Br)c(OC)c(OC)c(OC)c2-c2ccc(SC)c(=O)cc21	< 0.01 µM	18.1 µM
ClCCN(CCCl)Cc1ccc(Nc2ccnc3cc(Cl)ccc23)cc1	0.702 µM	2.99 µM
CCOC(=O)C1(Cc2ccc(C)cc2)Cc2ccc(C)cc2C1=O (centres undefined)	10.4 µM	37.4 µM
O=C1C(=O)c2ccc(Br)cc2-c2cc(Br)ccc21	0.604 µM	1.43 µM
Cc1cc(N(CCCl)CCCl)ccc1C=Nc1cccnc1	0.0712 µM	0.521 µM
C[C@@H]1O[C@@H](O[C@H]2C[C@@H](O)[C@]3(CO)C4C(CC[C@]3(O)C2)[C@@]2(O)CC[C@H](C3=CC(=O)OC3)[C@@]2(C)C[C@H]4O)[C@H](O)[C@H](O)[C@H]1O (some centres undefined)	0.0841 µM	0.187 µM
FC(F)(F)c1cc(Nc2ccc3c(OCCCN4CCOCC4)cccc3n2)ccc1Cl	2.17 µM	5.92 µM
Cn1cc(-c2cc3c(Nc4ccc(CC(=O)Nc5cc(C(C)(C)C)on5)cc4)ncnc3[nH]2)cn1	0.325 µM and 0.242 µM	1.08 µM and 0.737 µM
COc1cc(-c2c3c(cn2S(=O)(=O)c2ccccc2)-c2nc(N)sc2CC3)cc(OC)c1OC	0.426 µM	22.2 µM
